The source of these data is patent US20260015341A1, “PI3K INHIBITOR, PREPARATION METHOD THEREFOR, AND USE THEREOF” (HINOVA PHARMACEUTICALS INC., priority 2022, published 2026).

Series [1] can be described thus: Pharmacokinetics in rats. Type of series: in vivo, SD rats. The conditions noted are these: rat; for AUC / half-life / clearance / Vd: male, SD, plasma; for Vd: read-out: VSS. The procedure: Experimental Example 4: The Pharmacokinetics of the Compound According to the Present Invention in Rats
9 healthy adult male SD rats (three for each administration route of each compound) were fasted overnight (>12 h) before gavage, with free access to water; 4 hours after administration, rats could take food, and were administered via tail vein injection and gastric lavage, respectively. At different time points, intravenous blood sample was collected and anti-coagulated, wherein the anticoagulant was EDTA-K2 (the sample was placed in an ice bath after blood collection). The plasma was separated by centrifugation at 4° C. and 6000 g for 5 min, and stored at −70° C. for testing. The plasma concentration of compounds was determined by LC-MS/MS method.
The plasma concentration of compound at all time points was used to calculate the main pharmacokinetic parameters with Winnolin 8.3 non-compartmental model.
The area under the concentration-time curve AUCall value: calculated using the trapezoidal method; AUCinf=AUCall+Ct/ke, Ct is the plasma concentration at the last measurable time point, and ke is the elimination rate constant;
The elimination half life t1/2=0.693/ke;
The clearance rate CL=D/AUCinf (D is the administration dosage);
The volume of distribution at steady state Vss=CL×MRT, The mean retention time MRT=AUMC/AUC;

Series [2] deals with MDA-MB-453 cells. The series can be described thus: Pharmacodynamic evaluation in NOD SCID mouse model with subcutaneous xenograft tumor of MDA-MB-453 cells. The class given is in vivo. The settings on record: oral, twice a day. On the procedure: Experimental Example 6: Pharmacodynamic Evaluation of the Compound According to the Present Invention in NOD SCID Mouse Model with Subcutaneous Xenograft Tumor of MDA-MB-453 Cells
MDA-MB-453 cell lines were cultured in Leibovitz's L-15 medium+10% fetal bovine serum+1% […] at 37° C. under 5% CO2, and passaged once a week. When the cell saturation was between 80% and 90%, and the required quantity was reached, the cells were collected, counted, and inoculated.
When the number of cells in the logarithmic growth phase reached the required amount for the experiment, the cells were collected, and centrifuged at 1000 rpm for 5 minutes to remove the supernatant. The cells were resuspended in the medium, and counted using a cell counter. Based on the counting results, the original solution was diluted to obtain cell suspension at a concentration of 1*10^8 cells/mL. The cell viability was 94.55%, P14 generation. The diluted cell suspension and matrix gel were diluted in a 1:1 ratio, and after mixing, placed on ice. a 1 mL sterile syringe was used to transfer the suspension. 0.2 mL of cell suspension was subcutaneously inoculated into the right axilla of each mouse. Each mouse was inoculated with 1*10^7 MDA-MB-453 cells.
After inoculation, the tumor growth state was observed daily. When the average volume reached about 157.14 mm^3, mice were randomly divided into groups based on tumor size and body weight for administration. The same dose of solvent was given to the control group. The day on which tumor cells were inoculated was defined as Day 0.
The health and mortality status of animals was daily monitored, including tumor growth, activity ability, diet, weight, eyes, hair, and other abnormal behaviors. Body weight was measured daily, while tumor volume was measured twice a week. The tumor volume was measured using a vernier caliper, and the formula is TV=0.5 a×b^2, wherein a is the long diameter of the tumor, and b is the short diameter of the tumor. After reaching the experimental endpoint, plasma samples were collected from each group at pre-determined time points for determining the plasma concentration. After euthanizing mice, tumors were collected, photographed, weighed, and frozen.
Relative tumor proliferation rate, T/C (%), refers to the percentage ratio of tumor volume or weight between the treatment group and the control group at a certain time point. The calculation formula is: T/C %=TRTV/CRTV×100%
wherein, TRTV: the average relative tumor volume (RTV) of the treatment group; CRTV: the average relative tumor volume of the control group; (RTV): RTV=Vt/V0, V0 is the tumor volume of the animal at the time of grouping, and Vt is the tumor volume of the animal after treatment. […]

Setting [3] is: iv (tail vein injection), 1 mg/kg.

SMILES strings stand for the structures.

The AUC is the area under the concentration-time curve, a measure of exposure. A high value points to high exposure. The half-life is the time needed for the level to fall by half in the phase considered. The low end stands for fast loss, the high end for slow loss. The clearance is the rate of elimination divided by the concentration. In series [1] (po, ig (intragastric), 3 mg/kg), `Cc1cc([C@@H](C)Nc2ccc(Cl)nc2C(=O)O)c2nc(-c3ccc(F)cn3)n(C)c(=O)c2c1` [Compound 66, (R)-6-chloro-3-((1-(2-(5-fluoropyridin-2-yl)-3,6-dimethyl-4-oxo-3,4-dihydroquinazolin-8-yl)ethyl)amino)pyridinecarboxylic Acid] showed an AUC of 4040 ng·h/mL and a half-life of 18 h. Besides, in series [1] (setting [3]), the AUC worked out at 1390 ng·h/mL, the clearance came out at 10.9 mL/min/kg, the half-life was 3.44 h and the Vd worked out at 2.2 L/kg. The F in series [1] (ig (intragastric), 3 mg/kg) amounted to 89.0%. Moreover, the “TGI % after administrating for 21 days” value in series [2] (25 mg/kg) is listed as 71%. Moreover, in series [2] (75 mg/kg), the “TGI % after administrating for 21 days” value was found to be 87%.
With `C[C@@H](Nc1ccc(Cl)nc1C(=O)O)c1cc(F)cc2c(=O)n(C)c(-c3ccc(F)cn3)nc12` [Compound 74], in series [1] (po, ig (intragastric), 3 mg/kg), the AUC worked out at 1330 ng·h/mL and the half-life is 2.4 h. Further, in series [1] (setting [3]), the AUC was found to be 1010 ng·h/mL, the clearance came to 16.6 mL/min/kg, the half-life was 2.73 h and the Vd is 1.33 L/kg. This molecule also displayed a F in series [1] (ig (intragastric), 3 mg/kg) of 44.8%. In addition, the “TGI % after administrating for 21 days” value in series [2] (25 mg/kg) came out at 74%. Further, the “TGI % after administrating for 21 days” value in series [2] (75 mg/kg) was 85%.
